From patent publication US7326721B2 (Hypnion, Inc., priority 2003, dated 2008)
Like-named read-outs stand apart in the source and are kept apart here.

Tests used:
M2 muscarinic receptor = target: T1, M2 muscarinic receptor (Homo sapiens, UniProt P08172); test: Muscarinic M2 binding assay; set-up: purchased PerkinElmer, Inc., Wellesley, Mass; host or cells: CHO cells; settings: for Ki: read-out: Ki M2
T1 sequence (P08172 1-466): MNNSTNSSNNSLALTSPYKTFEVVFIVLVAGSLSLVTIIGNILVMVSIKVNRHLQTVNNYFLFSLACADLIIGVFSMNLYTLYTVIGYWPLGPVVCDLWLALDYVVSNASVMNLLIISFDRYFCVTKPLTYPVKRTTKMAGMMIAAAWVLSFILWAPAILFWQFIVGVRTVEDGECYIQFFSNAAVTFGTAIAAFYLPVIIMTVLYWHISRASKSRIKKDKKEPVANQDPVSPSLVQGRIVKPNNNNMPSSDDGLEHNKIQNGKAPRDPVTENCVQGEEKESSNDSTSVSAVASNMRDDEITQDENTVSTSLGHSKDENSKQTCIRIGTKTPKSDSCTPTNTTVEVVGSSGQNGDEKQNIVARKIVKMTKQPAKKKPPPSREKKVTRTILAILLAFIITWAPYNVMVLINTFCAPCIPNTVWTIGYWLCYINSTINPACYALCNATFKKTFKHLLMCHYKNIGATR

adult male Wistar rats = test: SCORE-2000 sleep-wakefulness, locomotor activity and body temperature monitoring; type: in vivo, rat
M3 muscarinic receptor = M3 muscarinic receptor (Homo sapiens, UniProt P20309); test: Muscarinic M3 binding assay; set-up: purchased PerkinElmer, Inc., Wellesley, Mass; host or cells: CHO cells; settings: read-out: Ki M3
H1 histamine receptor = target: T2, H1 histamine receptor (Bos taurus, UniProt P30546); test: Histamine H1 competitive binding assay ([3H]pyrilamine); set-up: species or system bovine; settings: read-out: Ki H1
T2 construct: the receptors were obtained from bovine cerebellar membrane tissue; from tissue; host or cells: bovine cerebellar membranes

M1 muscarinic receptor = target: T3, M1 muscarinic receptor (Homo sapiens, UniProt P11229); test: Muscarinic M1 binding assay ([3H]-scopolamine, N-methyl chloride); set-up: purchased PerkinElmer, Inc., Wellesley, Mass; host or cells: CHO cells; settings: read-out: Ki M1
T3 sequence (P11229 1-460): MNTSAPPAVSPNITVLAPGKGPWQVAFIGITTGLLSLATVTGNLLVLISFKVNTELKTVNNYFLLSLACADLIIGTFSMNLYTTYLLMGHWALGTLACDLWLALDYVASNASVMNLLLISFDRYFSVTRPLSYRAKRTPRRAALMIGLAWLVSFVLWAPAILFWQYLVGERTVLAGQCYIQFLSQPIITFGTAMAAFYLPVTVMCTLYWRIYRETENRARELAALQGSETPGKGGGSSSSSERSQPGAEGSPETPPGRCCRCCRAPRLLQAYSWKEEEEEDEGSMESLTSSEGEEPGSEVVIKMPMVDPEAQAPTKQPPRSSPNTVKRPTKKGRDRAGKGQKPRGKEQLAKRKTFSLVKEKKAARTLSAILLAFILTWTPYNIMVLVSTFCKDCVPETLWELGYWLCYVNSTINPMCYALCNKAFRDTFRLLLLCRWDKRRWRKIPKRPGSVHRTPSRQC

hERG = hERG (Homo sapiens, UniProt Q12809)
Sequence of hERG (Q12809 whole entry): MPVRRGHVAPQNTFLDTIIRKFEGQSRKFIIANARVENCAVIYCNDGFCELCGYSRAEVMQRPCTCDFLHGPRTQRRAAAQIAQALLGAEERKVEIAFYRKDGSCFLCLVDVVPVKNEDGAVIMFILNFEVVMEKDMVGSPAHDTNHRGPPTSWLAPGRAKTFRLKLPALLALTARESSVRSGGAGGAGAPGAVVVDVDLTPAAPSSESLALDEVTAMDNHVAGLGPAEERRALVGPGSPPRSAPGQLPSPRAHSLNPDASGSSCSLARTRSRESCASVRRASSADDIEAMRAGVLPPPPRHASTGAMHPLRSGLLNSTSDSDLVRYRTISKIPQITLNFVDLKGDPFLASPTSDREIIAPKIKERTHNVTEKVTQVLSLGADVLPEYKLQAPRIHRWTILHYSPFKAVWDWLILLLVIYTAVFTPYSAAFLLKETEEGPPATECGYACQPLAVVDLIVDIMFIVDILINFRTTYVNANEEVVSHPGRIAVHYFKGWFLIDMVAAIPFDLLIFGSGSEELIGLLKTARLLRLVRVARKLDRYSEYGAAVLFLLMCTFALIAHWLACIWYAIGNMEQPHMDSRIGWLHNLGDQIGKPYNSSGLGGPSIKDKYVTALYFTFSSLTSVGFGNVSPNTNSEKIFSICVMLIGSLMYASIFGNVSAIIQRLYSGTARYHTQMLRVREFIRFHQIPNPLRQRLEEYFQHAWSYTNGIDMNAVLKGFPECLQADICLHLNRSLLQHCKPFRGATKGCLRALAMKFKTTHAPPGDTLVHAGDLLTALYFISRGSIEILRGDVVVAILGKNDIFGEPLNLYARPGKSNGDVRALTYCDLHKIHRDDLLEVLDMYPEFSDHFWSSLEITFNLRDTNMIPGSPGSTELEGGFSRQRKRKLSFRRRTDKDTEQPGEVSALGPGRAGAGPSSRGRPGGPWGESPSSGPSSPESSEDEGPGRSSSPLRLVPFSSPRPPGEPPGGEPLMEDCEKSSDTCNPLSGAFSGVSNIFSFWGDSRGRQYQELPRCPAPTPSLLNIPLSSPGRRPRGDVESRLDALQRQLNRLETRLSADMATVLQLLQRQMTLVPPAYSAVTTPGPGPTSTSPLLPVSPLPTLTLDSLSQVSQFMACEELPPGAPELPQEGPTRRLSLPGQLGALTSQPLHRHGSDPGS

Sequence of M3 muscarinic receptor (P20309 whole entry): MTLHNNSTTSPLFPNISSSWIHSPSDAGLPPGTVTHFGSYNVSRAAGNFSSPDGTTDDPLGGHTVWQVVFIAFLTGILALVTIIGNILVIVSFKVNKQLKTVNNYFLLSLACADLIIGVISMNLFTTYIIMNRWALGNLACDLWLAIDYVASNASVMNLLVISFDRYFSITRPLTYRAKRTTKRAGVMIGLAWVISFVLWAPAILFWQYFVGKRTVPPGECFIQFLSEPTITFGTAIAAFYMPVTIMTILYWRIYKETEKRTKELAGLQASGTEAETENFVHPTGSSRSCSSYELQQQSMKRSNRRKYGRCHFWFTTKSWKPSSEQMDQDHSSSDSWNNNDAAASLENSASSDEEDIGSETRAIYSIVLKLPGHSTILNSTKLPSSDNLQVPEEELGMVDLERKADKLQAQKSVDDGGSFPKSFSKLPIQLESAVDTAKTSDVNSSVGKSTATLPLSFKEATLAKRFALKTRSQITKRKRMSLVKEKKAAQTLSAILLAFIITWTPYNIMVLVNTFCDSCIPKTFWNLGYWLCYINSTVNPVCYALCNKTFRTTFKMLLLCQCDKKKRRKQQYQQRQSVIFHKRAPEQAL
T2 sequence (P30546 whole entry): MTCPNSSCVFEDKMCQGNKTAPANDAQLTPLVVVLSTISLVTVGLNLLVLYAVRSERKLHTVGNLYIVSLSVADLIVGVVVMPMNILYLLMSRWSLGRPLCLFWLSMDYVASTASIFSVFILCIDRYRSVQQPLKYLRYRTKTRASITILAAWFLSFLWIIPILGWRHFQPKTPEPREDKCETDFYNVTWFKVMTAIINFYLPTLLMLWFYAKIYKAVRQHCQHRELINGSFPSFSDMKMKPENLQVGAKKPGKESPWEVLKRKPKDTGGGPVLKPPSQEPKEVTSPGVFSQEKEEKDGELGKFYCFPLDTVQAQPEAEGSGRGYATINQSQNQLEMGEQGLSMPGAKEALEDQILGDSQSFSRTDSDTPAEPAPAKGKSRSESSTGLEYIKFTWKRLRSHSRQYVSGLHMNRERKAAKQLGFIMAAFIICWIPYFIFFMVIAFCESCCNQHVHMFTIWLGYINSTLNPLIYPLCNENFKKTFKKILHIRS

| SMILES | LUSB (adult male Wistar rats; dose 3 mg/kg oral at CT-18) | NREM (adult male Wistar rats; dose 3 mg/kg oral at CT-18) | LUSB (adult male Wistar rats; dose 10 mg/kg oral at CT-18) | NREM (adult male Wistar rats; dose 10 mg/kg oral at CT-18) | LUSB (adult male Wistar rats; dose 30 mg/kg oral at CT-18) | NREM (adult male Wistar rats; dose 30 mg/kg oral at CT-18) | other results |
| --- | --- | --- | --- | --- | --- | --- | --- |
| C[N+]1(C)C2CC(OC(=O)C(CO)c3ccccc3)CC1C1OC12.[Br-] (single isomer, unassigned; (-)) [(−)-scopolamine, MeBr, (−)-scopolamine, methyl-, bromide, reference compound] |  |  |  |  |  |  | Slope (M2 muscarinic receptor; M2 binding curve (Table 17)): −0.89 |
| COc1ccc2c(c1)COc1ccc(OC)cc1C2=C1CCN(CC(C)(C)C(=O)O)CC1 [Compound 10a] | 1.6 min | -8.9 min | 4 min | 15.1 min | 6.8 min | 30.9 min | LUSB (adult male Wistar rats; dose 1 mg/kg oral at CT-18): 3.1 min; NREM (adult male Wistar rats; dose 1 mg/kg oral at CT-18): -5 min |
| COc1ccc2c(c1)C(=C1CCN(CC(C)(C)C(=O)O)CC1)c1ccc(F)cc1CO2 [Compound 46a] | 5 min | 12.1 min | 8.2 min | 36 min |  |  | Ki (M2 muscarinic receptor): 2.45 µM; Ki (M3 muscarinic receptor): > 10 µM; Ki (H1 histamine receptor): 0.134 µM; Ki (M1 muscarinic receptor): > 10 µM |
| COc1ccc2c(c1)COc1ccc(F)cc1C2=C1CCN(CC(C)(C)C(=O)O)CC1 [Compound 47a] | 5.5 min | 32.3 min | 16.7 min | 41.1 min | 10 min | 56.9 min | Ki (M2 muscarinic receptor): > 10 µM; Ki (M3 muscarinic receptor): > 10 µM; Ki (H1 histamine receptor): 0.111 µM; LUSB (adult male Wistar rats; dose 1 mg/kg oral at CT-18): 2.9 min; NREM (adult male Wistar rats; dose 1 mg/kg oral at CT-18): 5.5 min; hERG at micromolar (% blocking of the hERG channel) (hERG; human, 10 µM, pH 7.4): 1% @ 10; Ki (M1 muscarinic receptor): > 10 µM |
| CC(C)(CN1CCC(=C2c3ccc(F)cc3COc3ccc(F)cc32)CC1)C(=O)O [Compound 48a] | 11.2 min | 50.8 min | 10 min | 58.6 min | 4.4 min | 39.4 min | LUSB (adult male Wistar rats; dose 1 mg/kg oral at CT-18): 6.9 min; NREM (adult male Wistar rats; dose 1 mg/kg oral at CT-18): 36.7 min |
| CCC(CC)(CN1CCC(=C2c3ccc(F)cc3COc3ccccc32)CC1)C(=O)O [Compound 49c] |  |  |  |  |  |  | Ki (M2 muscarinic receptor): > 10 µM; Ki (M3 muscarinic receptor): > 10 µM; Ki (H1 histamine receptor): 0.0299 µM; hERG at micromolar (% blocking of the hERG channel) (hERG; human, 10 µM, pH 7.4): 19.7% @ 10; Ki (M1 muscarinic receptor): > 10 µM |
| COc1ccc2c(c1)C(=C1CCN(CC(C)(C)C(=O)O)CC1)c1ccccc1CO2 [Compound 52a] | 8.2 min | 13.6 min | 5.7 min | 26.8 min | 10.1 min | 37.2 min |  |
| COc1ccc2c(c1)C(=C1CCN(CC3(C(=O)O)CC3)CC1)c1ccccc1CO2 [Compound 52b] |  |  | 2.9 min | 7.5 min | 7.1 min | 26.8 min |  |
| CC(C)(CN1CCC(=C2c3ccccc3COc3ccc(F)cc32)CC1)C(=O)O [Compound 53a] | 17.2 min | 38.6 min | 14.4 min | 51.5 min | 11.9 min | 66.3 min | LUSB (adult male Wistar rats; dose 1 mg/kg oral at CT-18): 5 min; NREM (adult male Wistar rats; dose 1 mg/kg oral at CT-18): 14.6 min |
| CC(C)(CN1CCC(=C2c3ccc(C(F)(F)F)cc3COc3ccccc32)CC1)C(=O)O [Compound 54a] |  |  |  |  | 6.1 min | 28.6 min |  |
| CC(C)(CN1CCC(=C2c3ccccc3COc3ccc(O)cc32)CC1)C(=O)O [Compound 55a] |  |  |  |  | 2 min | 12.8 min |  |
| O=C(O)C1(CN2CCC(=C3c4ccccc4COc4ccc(O)cc43)CC2)CC1 [Compound 55b] |  |  | 2.5 min | 7.7 min |  |  |  |
| CC(C)(CN1CCC(=C2c3ccc(O)cc3COc3ccccc32)CC1)C(=O)O [Compound 56a] |  |  |  |  | 4.3 min | 6.4 min |  |
| O=C(O)C1(CN2CCC(=C3c4ccc(O)cc4COc4ccccc43)CC2)CC1 [Compound 56b] |  |  |  |  | -2.9 min | -9.9 min |  |
| Cc1ccc2c(c1)COc1ccccc1C2=C1CCN(CC(C)(C)C(=O)O)CC1 [Compound 57a] |  |  |  |  | -5.3 min | -11 min |  |
| CC(C)(CN1CCC(=C2c3ccc(F)cc3COc3ccc(O)cc32)CC1)C(=O)O [Compound 58a] | 5.3 min | 9.1 min | 7.6 min | -12.5 min |  |  |  |
| CC(C)(CN1CCC(=C2c3ccc(O)cc3COc3ccc(F)cc32)CC1)C(=O)O [Compound 60a] |  |  | 3.7 min | -5.2 min |  |  |  |
| COc1ccc2c(c1)COc1ccccc1C2=C1CCN(CCC2(C(=O)O)CC2)CC1 [Compound 62b] |  |  |  |  |  |  | Ki (M2 muscarinic receptor): > 10 µM; Ki (M3 muscarinic receptor): > 10 µM; Ki (H1 histamine receptor): 0.0565 µM; Ki (M1 muscarinic receptor): > 10 µM |
| CC(C)(CCN1CCC(=C2c3ccc(O)cc3COc3ccccc32)CC1)C(=O)O [Compound 63a] |  |  |  |  | 4.6 min | 9.6 min |  |
| O=C(O)C1(CCN2CCC(=C3c4ccc(O)cc4COc4ccccc43)CC2)CC1 [Compound 63b] |  |  | 2.1 min | -4.8 min |  |  |  |
| CC(C)(CCN1CCC(=C2c3ccc(C(F)(F)F)cc3COc3ccccc32)CC1)C(=O)O [Compound 64a] |  |  |  |  | 12.3 min | 33.5 min |  |
| CC(C)(CCN1CCC(=C2c3ccccc3COc3ccc(O)cc32)CC1)C(=O)O [Compound 65a] |  |  | 1.5 min | 6.2 min |  |  |  |
| O=C(O)C1(CCN2CCC(=C3c4ccccc4COc4ccc(O)cc43)CC2)CC1 [Compound 65b] |  |  | 3.9 min | -5.7 min |  |  |  |
| Cc1ccc2c(c1)COc1ccccc1C2=C1CCN(CCC(C)(C)C(=O)O)CC1 [Compound 66a] |  |  |  |  | 8.8 min | 27.8 min |  |
| COc1ccc2c(c1)C(=C1CCN(CCC(C)(C)C(=O)O)CC1)c1ccccc1CO2 [Compound 67a] |  |  |  |  | 6.5 min | -11.5 min |  |
| COc1ccc2c(c1)C(=C1CCN(CCC3(C(=O)O)CC3)CC1)c1ccccc1CO2 [Compound 67b] |  |  | 4.6 min | 12.6 min | 10 min | 21.1 min | Ki (M2 muscarinic receptor): > 10 µM; Ki (M3 muscarinic receptor): > 10 µM; Ki (H1 histamine receptor): 0.0625 µM; Ki (M1 muscarinic receptor): > 10 µM |
| CC(C)(CCN1CCC(=C2c3ccc(Cl)cc3COc3ccccc32)CC1)C(=O)O [Compound 68a] | 4.3 min | 20.9 min | 7.8 min | 45.9 min | 11.9 min | 50.8 min | hERG at micromolar (% blocking of the hERG channel) (hERG): 25.3% @ 10 |
| CC(C)(CN1CCC(=C2c3ccccc3COc3ccccc32)CC1)C(=O)O [Compound 69a] | 7.1 min | 32.2 min | 13.1 min | 32.8 min | 13.5 min | 40 min | hERG at micromolar (% blocking of the hERG channel) (hERG; human, 1 µM, pH 7.4): 6.1% @ 1 |
| O=C(O)CCN1CCC(=C2c3ccccc3COc3ccccc32)CC1 [Compound 69e] | 5.6 min | 21.2 min | 9.7 min | 28.4 min |  |  | LUSB (adult male Wistar rats; dose 20 mg/kg oral at CT-18): 12.3 min; NREM (adult male Wistar rats; dose 20 mg/kg oral at CT-18): 54.6 min; hERG at micromolar (% blocking of the hERG channel) (hERG): −1.4% @ 1 |
| CC(C)(CCCN1CCC(=C2c3ccccc3COc3ccccc32)CC1)C(=O)O [Compound 71a] |  |  |  |  | 3.6 min | 8.1 min |  |
